# Test results from article PMC12133000 (PLOS One, 2025).
# Like-named read-outs stand apart in the source and are kept apart here.
# Experiment: Pharmacokinetics of rivaroxaban in rats after avitinib or gefitinib pretreatment
# Format: in vivo, Sprague–Dawley (SD) rats
# Details: male, Sprague-Dawley, rat, plasma; for AUC(0-t): read-out: AUC(0-t); for CL/F: read-out: CLz/F (converted); for Cmax: read-out: Cmax; for MRT last: read-out: MRT(0-t); for half-life: read-out: t1/2z (converted); for k el: read-out: λz (converted); for MRT inf: read-out: MRT(0-∞)
# Protocol: Eighteen male Sprague–Dawley (SD) rats weighing 300 ± 20 g were provided by the Experimental Animal Center of Wenzhou Medical University (Wenzhou, China) and kept under controlled conditions at a temperature of 23 ± 2 °C, relative humidity of 50 ± 10%, and 12 h light–dark cycle. Eighteen male SD rats were randomly assigned to three groups: avitinib, gefitinib, and control, with six rats per group. Prior to the experiment, the rats were not administered any other medications and fasted for 12 h. The experimental procedures and protocols adhered to Animal Ethics standards and were approved by the Animal Care and Use Committee of Wenzhou Medical University (approval no. wydw2019–650). All rats were anesthetized with sodium pentobarbital (40mg/kg, i.p) to relieve pain. The rats were killed through cervical dislocation.
# Prior to the experiment in vivo, the six rats in the avitinib group were administered 30 mg/kg avitinib and 0.5% sodium carboxymethyl cellulose (CMC-Na) solution by gavage daily for 7 d. […] The supernatant was collected and stored at −80 °C. After thawing, 50 μL of plasma was extracted; 100 μL of acetonitrile solution containing midazolam (200 ng/mL) was then added to induce protein precipitation. After vortexing for 30 s and centrifuging at 13,000 rpm for 5 min, the […].
# All assays were performed in triplicate, and the results are expressed as mean ± standard deviation. DAS software v. […] SPSS v. 25.0 (IBM, NY, USA) was used for data processing. Student’s t-tests were used to detect differences between groups. Differences with p < 0.05 were considered statistically significant.
# [1] = po, 10 mg/kg, avitinib group, Mean
# [2] = po, 10 mg/kg, avitinib group, single rats No1-No6
# [3] = po, 10 mg/kg, gefitinib group, Mean
# [4] = po, 10 mg/kg, gefitinib group, single rats No1-No6
smiles,measurement,setting,value
"O=C(NC[C@H]1CN(c2ccc(N3CCOCC3=O)cc2)C(=O)O1)c1ccc(Cl)s1 [rivaroxaban, Rivaroxaban]",concentration at 12 h,"oral, rivaroxaban ng/ml mean, 吉非替尼 (gefitinib) group, mean of rats 7-12, time 12",1640 ng/mL
same,concentration at 24 h,"oral, rivaroxaban ng/ml mean, 艾维替尼 (avitinib) group, mean (one rat only), time 24",14.8 ng/mL
same,concentration at 5 min,"oral, rivaroxaban ng/ml mean, 艾维替尼 (avitinib) group, mean of rats 1-6, time 0.0833",284 ng/mL
same,concentration at 0.25 h,"oral, rivaroxaban ng/ml mean, 艾维替尼 (avitinib) group, mean of rats 1-6, time 0.25",588 ng/mL
same,concentration at 0.5 h,"oral, rivaroxaban ng/ml mean, 艾维替尼 (avitinib) group, mean of rats 1-6, time 0.5",1090 ng/mL
same,concentration at 1 h,"oral, rivaroxaban ng/ml mean, 艾维替尼 (avitinib) group, mean of rats 1-6, time 1",1730 ng/mL
same,concentration at 2 h,"oral, rivaroxaban ng/ml mean, 艾维替尼 (avitinib) group, mean of rats 1-6, time 2",1650 ng/mL
same,concentration at 3 h,"oral, rivaroxaban ng/ml mean, 艾维替尼 (avitinib) group, mean of rats 1-6, time 3",1390 ng/mL
same,concentration at 4 h,"oral, rivaroxaban ng/ml mean, 艾维替尼 (avitinib) group, mean of rats 1-6, time 4",1010 ng/mL
same,concentration at 6 h,"oral, rivaroxaban ng/ml mean, 艾维替尼 (avitinib) group, mean of rats 1-6, time 6",538 ng/mL
same,concentration at 8 h,"oral, rivaroxaban ng/ml mean, 艾维替尼 (avitinib) group, mean of rats 1-6, time 8",448 ng/mL
same,concentration at 12 h,"oral, rivaroxaban ng/ml mean, 艾维替尼 (avitinib) group, mean of rats 1-6, time 12",80.9 ng/mL
same,concentration at 0.25 h,"oral, rivaroxaban ng/ml, 吉非替尼 (gefitinib) group, individual rats 7-12, time 0.25",1690 ng/mL
same,concentration at 0.5 h,"oral, rivaroxaban ng/ml, 吉非替尼 (gefitinib) group, individual rats 7-12, time 0.5",3820 ng/mL
same,concentration at 1 h,"oral, rivaroxaban ng/ml, 吉非替尼 (gefitinib) group, individual rats 7-12, time 1",5910 ng/mL
same,concentration at 3 h,"oral, rivaroxaban ng/ml, 吉非替尼 (gefitinib) group, individual rats 7-12, time 3",9510 ng/mL
same,concentration at 4 h,"oral, rivaroxaban ng/ml, 吉非替尼 (gefitinib) group, individual rats 7-12, time 4",11300 ng/mL
same,concentration at 6 h,"oral, rivaroxaban ng/ml, 吉非替尼 (gefitinib) group, individual rats 7-12, time 6",3980 ng/mL
same,concentration at 8 h,"oral, rivaroxaban ng/ml, 吉非替尼 (gefitinib) group, individual rats 7-12, time 8",3270 ng/mL
same,concentration at 5 min,"oral, rivaroxaban ng/ml, 艾维替尼 (avitinib) group, individual rats 1-6, time 0.0833",237 ng/mL
same,concentration at 24 h,"oral, rivaroxaban ng/ml, 艾维替尼 (avitinib) group, individual rats 1-6, time 24",14.8 ng/mL
same,AUC(0-inf),[1],9350 ng·h/mL
same,Tmax,[1],1.33 h
same,AUC(0-t),[1],9000 ng·h/mL
same,CL/F,[1],19.7 mL/min/kg
same,Cmax,[1],1810 ng/mL
same,MRT last,[1],3.79 h
same,half-life,[1],2.2 h
same,k el,[1],0.000104 s⁻¹
same,Tmax,[2],1 h
same,MRT last,[2],3.83 h
same,MRT inf,[2],2.87 h
same,AUC(0-inf),[3],76000 ng·h/mL
same,Tmax,[3],3.17 h
same,AUC(0-t),[3],58000 ng·h/mL
same,CL/F,[3],2.32 mL/min/kg
same,Cmax,[3],8310 ng/mL
same,MRT last,[3],4.9 h
same,MRT inf,[3],8.23 h
same,Vd/F,"po, 10 mg/kg, gefitinib group, Mean, read-out: Vz/F",0.867 L/kg
same,half-life,[3],4.81 h
same,k el,[3],5.17e-05 s⁻¹
same,AUC(0-inf),[4],109000 ng·h/mL
same,AUC(0-t),[4],62400 ng·h/mL
same,CL/F,[4],1.53 mL/min/kg
same,Cmax,[4],6780 ng/mL
